One assay has as its system RA sera. The assay can be described thus: IgG response to cyclic citrullinated FBG peptides in RA and control sera. The format is binding, human. Particulars: RA sera (n=20) vs control sera (n=20). The source says:
(A) Peptides with sequences corresponding to the amino acid sequence of FBG were designed, with the addition of cysteine residues at the amino and carboxy termini and the exchange of arginine for citrulline residues at positions identified by LC-MS/MS. (B) IgG response to citrullinated FBG peptides and arginine containing control peptides in patients with rheumatoid arthritis (RA; n=20) and healthy controls (n=20). The 95th percentile of the control sera was used to determine positivity (dashed line). Mann-Whitney U test was used to calculate p values for differences between groups (n.s.=no significant difference, *=p<0.05 and **=p<0.01, ***=p<0.001, […]).
With reference to FIG. 31, the antibody response in 20 RA and 20 control sera to 6 cyclic FBG peptides, encompassing citrulline residues was evaluated.

Assay [1] deals with RA synovial membrane cultures. The assay can be described thus: Blockade of spontaneous cytokine synthesis in RA synovial membrane cultures by FBG peptides. The following applies: 24 h; for inhibition of cytokine synthesis at the highest concentrations: RA membrane cultures, peptide 25, 100 or 250 μM, highest concentration; for TNF and IL8 synthesis (spontaneous): RA synovial membrane cultures, 100 μM peptide. The format is cell-based, human. On the procedure: RA membrane cells (representing a mixed population of all synovial cell types) were isolated from synovial membranes obtained from patients undergoing joint replacement surgery (Brennan (1989)). Synovial membrane tissue was digested in RPMI 1640 (GIBCO) containing 5% fetal calf serum (FCS) (GIBCO), 5 mg/ml collagenase type IV (Sigma) and 0 15 mg/ml DNAse type I (Sigma) and incubated at 37° C. for 2 h.
Immediately after isolation, RA membrane cells were cultured at 1×10^5 cells/well in RPMI 1640 containing 10% (v/v) FBS and 100 U/ml penicillin/streptomycin in 96-well tissue culture plates. Cells were incubated for 24 h at 37° C. with no addition, buffer control (PBS, 1% BSA, 0.01% NaN3), or with 25 μm, 100 μM or 250 μM of each FBG spanning peptide.
(§1) Supernatants were examined for the presence of the cytokines TNF-α, IL-6, and IL-8 by enzyme-linked immunosorbent assay (ELISA) according to the manufacturer's instructions (R&D systems). Absorbance was read on a spectrophotometric ELISA plate reader (Labsystems Multiscan Biochromic, Vantaa, Finland) and analyzed using the Ascent software program (Thermo Labsystems, Altrincham, UK).

The test system of assay [2] is primary human macrophages. The assay can be described thus: Cytokine synthesis in primary human macrophages stimulated with FBG peptides. The format is cell-based. Particulars: 1 or 20 μM peptide, 24 h. As for the experimental part:
After incubation the tissue was pipetted through a nylon mesh into a sterile beaker. The cells were then washed three times in complete medium (RPMI 1640 supplemented with 10% FCS). RA synovial fibroblasts were isolated from the mixed population of RA membrane cells by selection in DMEM (Bio-Whittaker) supplemented with 10% FBS, […], 100 U/ml penicillin, and streptomycin. Human monocytes were isolated from peripheral blood (London Blood Bank) and macrophages were derived from monocytes after differentiation for 4 days with 100 ng/ml of M-CSF.
(§2) Macrophages were cultured at 1×10^5 cells/well in RPMI 1640 containing 5% (v/v) FBS and 100 U/ml penicillin/streptomycin in 96-well tissue culture plates for 24 h before stimulation. Cells were incubated for 24 h at 37° C. with no addition, 1.0 μM FBG, 1 ng/ml LPS or 1 or 20 μM FBG peptide. Where stated, cells were pre-incubated with 20 μM FBG peptides for 15 min.
as §1

A further assay concerns human macrophages. The assay can be described thus: FBG or LPS induced cytokine synthesis in human macrophages after pre-incubation with FBG peptides. Format: cell-based. Particulars: pre-incubation with 20 μM peptide, 24 h; for FBG mediated cytokine synthesis: then 1 μM whole FBG. As for the experimental part: as §2, §1
Assay [3] relates to primary human macrophages. The assay can be described thus: TNF synthesis in primary human macrophages stimulated with native or citrullinated FBG. Format: cell-based. The following applies: 0.1-1.0 μM, 24 h. On the procedure: Primary human macrophages were isolated as described above and cultured at 1×10^5 cells/well in RPMI 1640 containing 5% (v/v) FBS and 100 U/ml penicillin/streptomycin in 96-well tissue culture plates for 24 h before stimulation. Cells were incubated for 24 h at 37° C. with no addition (UN), different concentrations (uM) of native FBG (nFBG) or cit FBG (cFBG) or citrullination buffer alone (CIT) or cit buffer plus PAD enzyme (CIT+PAD).
Supernatants were examined for the presence of the cytokines TNF-α by enzyme-linked immunosorbent assay (ELISA) according to the manufacturer's instructions (R&D systems). Absorbance was read on a spectrophotometric ELISA plate reader (Labsystems Multiscan Biochromic, Vantaa, Finland) and analyzed using the Ascent software program (Thermo Labsystems, Altrincham, UK).

Assay [4] relates to human dermal fibroblasts (HDF). The assay can be described thus: Cell adhesion to coated FBG, crystal violet. The format is cell-based. The following applies: coated wells, 45 minutes. As for the experimental part:
(§3) (A) The sequence identified to bind integrin αvβ3 is shown in white (Yokoyama et al., 2000). Within this sequence two Arginines (shown in black) were identified to be citrullinated. (B) Wells of a 96 well plate were coated with different concentrations of FBG, citrullinated FBG (cFBG), FBG incubated in buffer without Calcium (FBG —Ca^2+), or FBG incubated without PAD (FBG —PAD). As a positive control wells were coated with Fibronectin (FN) (1 ug/ml), and coating with BSA (10 mg/ml) served as negative control. Plates were incubated with human dermal fibroblasts (HDF) or synovial fibroblasts from RA patients (RAF) for 45 minutes and adhesion was measured by determining absorbance of attached cells after staining with crystal violet (0.1%). Data are shown as the mean of at least four independent experiments+s.e.m., *=p<0.05, **=p<0.01.

Assay [5] has as its system synovial fibroblasts from RA joints (RAF). The assay can be described thus: Cell adhesion to coated FBG, crystal violet. The format is cell-based, human. Particulars: coated wells, 45 minutes. As for the experimental part: as §3

Where no end group is shown, it is not given here. [ ]: non-standard residue; d: D form. Cit = NC(=O)NCCC[C@H](N)C(=O)O

Take “CEMKL-Cit-PSNF-Cit-NLEGRRKRC (CEMKL[Cit]PSNF[Cit]NLEGRRKRC; also: cyclic, closure not given here) [CIT209/214]”: the antibody response entry with RA sera is “strong antibody response”.
On the same count and under the same terms, the entry for “CEMKLRPSNFRNLEG-Cit-Cit-KRC (CEMKLRPSNFRNLEG[Cit][Cit]KRC; also: cyclic, closure not given here) [CIT219/220]” is “strong antibody response”; for “CVFLRRKNG-Cit-ENFYQNWC (CVFLRRKNG[Cit]ENFYQNWC; also: cyclic, closure not given here) [CIT55]” it is “strong antibody response”.
“ELRVDLRDHGETAFAVYDKFSVGDAKTRYK [Peptide 5]”: in assay [1] (RA membrane cells), the “effect on TNF synthesis” value is “no effect”. Besides, in assay [1] (RA membrane cells, dose dependent), the “maximal inhibition of IL8 synthesis” value is 81%. Besides, in assay [2], the “induction of cytokine synthesis” value is on record as “induced cytokine synthesis in a dose dependent manner”. In the assay with human macrophages, the “FBG mediated cytokine synthesis” value is “specifically blocked”.
For “KTRYKLKVEGYSGTAGDSMAYHNGRSFST [Peptide 6]”, the “induction of cytokine synthesis” value in assay [2] is recorded as “induced cytokine synthesis in a dose dependent manner”.
“TIGLLYPFPKDCSQAMLNGDTTSGLYTIYL [Peptide 1]”: the “induction of cytokine synthesis” value in assay [2] is listed as “induced cytokine synthesis in a dose dependent manner”.
Consider “WIVFLRRKNGRENFYQNWKAYAAGFGDRRE [Peptide 3]”, for which, in assay [1], the “inhibition of cytokine synthesis at the highest concentrations” value is reported as 95%; the “TNF and IL8 synthesis (spontaneous)” value was “inhibited”.
Regarding “WYRNCHRVNLMGRYGDNNHSQGVNWFHWKG [Peptide 8]”, in assay [1], the “inhibition of cytokine synthesis at the highest concentrations” value is on record as 56%; the “TNF and IL8 synthesis (spontaneous)” value is reported as “inhibited”. Besides, the “LPS induced cytokine synthesis” value with human macrophages (then 1 ng/ml LPS) is on record as “blocked”. Moreover, the “FBG mediated cytokine synthesis” value in the assay with human macrophages is “blocked”.

B1: citrullinated FBG: recombinant FBG domain citrullinated in vitro with PAD (protein)
chain: GLLYPFPKDCSQAMLNGDTTSGLYTIYLNGDKAEALEVFCDMTSDGGGWIVFLRRKNGRENFYQNWKAYAAGFGDRREEFWLGLDNLNKITAQGQYELRVDLRDHGETAFAVYDKFSVGDAKTRYKLKVEGYSGTAGDSMAYHNGRSFSTFDKDTDSAITNCALSYKGAFWYRNCHRVNLMGRYGDNNHSQGVNWFHWKGHEHSIQFAEMKLRPSNFRNLEGRRKRA
modifications: non-natural residues; left off: small tags and cut ends
notes: recombinant FBG domain citrullinated in vitro with PAD
Take B1: the “cytokine (TNFα) synthesis compared with native FBG” value in assay [3] is listed as “better at stimulating cytokine (e.g. TNFα) synthesis”. In addition, in assay [4], the “adhesion of HDF” value is recorded as “reduces adhesion”. In assay [5], the “adhesion of RAF” value is listed as “reduces adhesion”.

The record behind these values is US10088479B2, “Biomarker and uses thereof” (ISIS INNOVATION LIMITED, priority 2014, dated 2018).
